# Experimental data as given in PMC10178848, “Modulating fast skeletal muscle contraction protects skeletal muscle in animal models of Duchenne muscular dystrophy” (The Journal of Clinical Investigation, 2023).
# Legend:
# PDPK1 = target: T1, PDPK1 (Homo sapiens, UniProt O15530); assay: KINOMEscan scanEDGE; assay type: binding; conditions: 20 uM
# T1 construct: purchased Eurofins DiscoverX (KINOMEscan; SAFETYscan E/IC50 ELECT)
# RET = target: T2, RET (Homo sapiens, UniProt P07949); assay: KINOMEscan scanEDGE; assay type: binding; conditions: 20 uM
# T2 construct: purchased Eurofins DiscoverX (KINOMEscan; SAFETYscan E/IC50 ELECT)
# T2 sequence (P07949 29-1114): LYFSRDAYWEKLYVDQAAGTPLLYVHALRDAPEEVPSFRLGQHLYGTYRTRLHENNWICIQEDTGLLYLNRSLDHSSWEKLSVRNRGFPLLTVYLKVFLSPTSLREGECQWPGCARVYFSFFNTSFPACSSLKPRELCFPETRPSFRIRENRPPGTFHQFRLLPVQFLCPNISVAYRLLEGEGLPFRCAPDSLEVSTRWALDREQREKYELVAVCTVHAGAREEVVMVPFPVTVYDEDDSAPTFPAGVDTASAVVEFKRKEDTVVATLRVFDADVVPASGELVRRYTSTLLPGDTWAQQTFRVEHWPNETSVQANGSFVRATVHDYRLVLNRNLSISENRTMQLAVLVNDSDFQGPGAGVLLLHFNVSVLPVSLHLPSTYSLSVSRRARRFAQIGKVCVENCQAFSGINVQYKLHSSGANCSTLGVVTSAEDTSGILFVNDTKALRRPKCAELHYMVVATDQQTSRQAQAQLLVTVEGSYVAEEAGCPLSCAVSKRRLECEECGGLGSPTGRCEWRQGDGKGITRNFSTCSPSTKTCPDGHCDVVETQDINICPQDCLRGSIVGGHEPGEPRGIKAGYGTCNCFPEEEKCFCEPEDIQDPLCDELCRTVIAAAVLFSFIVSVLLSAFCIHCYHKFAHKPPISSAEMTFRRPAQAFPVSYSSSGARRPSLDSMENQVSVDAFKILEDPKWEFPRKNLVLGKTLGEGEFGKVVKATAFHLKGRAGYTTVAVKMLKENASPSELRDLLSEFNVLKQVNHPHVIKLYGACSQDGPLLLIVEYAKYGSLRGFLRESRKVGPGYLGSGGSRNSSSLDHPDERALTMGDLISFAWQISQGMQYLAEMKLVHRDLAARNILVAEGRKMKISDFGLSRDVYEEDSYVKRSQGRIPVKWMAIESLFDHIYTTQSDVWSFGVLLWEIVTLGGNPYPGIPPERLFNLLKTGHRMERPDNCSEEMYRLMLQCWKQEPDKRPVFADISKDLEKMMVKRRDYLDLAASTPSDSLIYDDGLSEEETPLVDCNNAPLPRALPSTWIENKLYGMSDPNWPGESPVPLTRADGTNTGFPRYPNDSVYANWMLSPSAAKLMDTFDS
# mdx mice = assay: Plasma CK activity in mice; assay type: in vivo, mouse
# Protocol: Plasma from mice and dogs were analyzed for CK activity using standard protocols (Pointe Scientific, Thermo Fisher Scientific).
# ACVR1B = target: T3, ACVR1B (Homo sapiens, UniProt P36896); assay: KINOMEscan scanEDGE; assay type: binding; conditions: 20 uM
# T3 construct: purchased Eurofins DiscoverX (KINOMEscan; SAFETYscan E/IC50 ELECT)
# T3 sequence (P36896 24-505): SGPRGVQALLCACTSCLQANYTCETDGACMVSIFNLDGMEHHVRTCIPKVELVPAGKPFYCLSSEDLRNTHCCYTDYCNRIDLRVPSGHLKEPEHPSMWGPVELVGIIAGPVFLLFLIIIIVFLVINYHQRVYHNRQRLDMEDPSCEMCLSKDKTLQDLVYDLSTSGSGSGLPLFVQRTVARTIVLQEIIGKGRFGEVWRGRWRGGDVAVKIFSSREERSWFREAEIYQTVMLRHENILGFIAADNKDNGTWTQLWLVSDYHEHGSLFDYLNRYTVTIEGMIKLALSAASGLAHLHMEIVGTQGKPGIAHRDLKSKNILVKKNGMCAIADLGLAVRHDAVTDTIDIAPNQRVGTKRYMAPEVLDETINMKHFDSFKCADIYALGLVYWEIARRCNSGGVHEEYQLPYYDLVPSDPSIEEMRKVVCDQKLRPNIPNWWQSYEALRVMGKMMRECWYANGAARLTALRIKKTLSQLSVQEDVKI
# CDK9 = target: T4, CDK9 (Homo sapiens, UniProt P50750); assay: KINOMEscan scanEDGE; assay type: binding; conditions: 20 uM
# T4 construct: purchased Eurofins DiscoverX (KINOMEscan; SAFETYscan E/IC50 ELECT)
# T4 sequence (P50750 whole entry): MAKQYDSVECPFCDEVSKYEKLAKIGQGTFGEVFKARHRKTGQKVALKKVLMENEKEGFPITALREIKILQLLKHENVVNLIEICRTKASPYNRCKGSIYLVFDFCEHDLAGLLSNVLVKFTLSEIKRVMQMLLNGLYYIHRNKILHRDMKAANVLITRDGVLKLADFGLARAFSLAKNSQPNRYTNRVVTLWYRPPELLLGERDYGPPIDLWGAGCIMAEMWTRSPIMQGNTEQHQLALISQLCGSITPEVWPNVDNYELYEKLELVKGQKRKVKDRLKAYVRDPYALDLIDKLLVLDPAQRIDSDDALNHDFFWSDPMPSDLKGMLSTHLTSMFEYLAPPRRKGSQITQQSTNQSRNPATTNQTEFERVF
# mdx lumbrical muscle = assay: Ex vivo mdx lumbrical muscle contraction, calcium and clots; parameters: species or system mouse
# Protocol: Intracellular calcium quantification and isometric injury were described previously ([31]). Lumbrical muscles were transferred to a custom-built chamber and mounted horizontally to a force transducer (model 400A, Aurora Scientific) at 25°C. Sarcomere length was adjusted to 2.5 μm by microscope. Contraction was elicited with 0.2-millisecond stimuli and injury via 1-second stimuli at 125 Hz.
# For fluorescence experiments, a 75W xenon lamp was used with wavelengths selected using a diffraction grating monochromator (model DeltaRAM, Photon Technology International). Muscles were loaded with mag-fura-2 AM (10 μM in Tyrode) for 30 minutes at 25°C, excited at 344 and 375 nm (bandwidth 10 nm), and passed through a 510 nm emission filter (bandwidth 40 nm). Fluorescence responses were recorded alternately during 32 twitch contractions at 20-second intervals; background fluorescence was subtracted, and the response was averaged. High-affinity fura-2 was used to detect membrane breaches between tetanic contractions. Muscles were incubated with fura-2 AM (15 μM in Tyrode) for 30 minutes before 12 injurious contractions, separated by 1 minute with (10/s) alternating excitation wavelengths of 340 and 375 nm (bandwidth 1.25 nm) with a 510 nm emission filter (bandwidth 40 nm) and preloading background subtraction. Still and video images were captured using a digital camera (Nikon D750).
# IKK-beta = target: T5, IKK-beta (Homo sapiens, UniProt O14920); assay: KINOMEscan scanEDGE; assay type: binding; conditions: 20 uM
# T5 construct: purchased Eurofins DiscoverX (KINOMEscan; SAFETYscan E/IC50 ELECT)
# T5 sequence (O14920 whole entry): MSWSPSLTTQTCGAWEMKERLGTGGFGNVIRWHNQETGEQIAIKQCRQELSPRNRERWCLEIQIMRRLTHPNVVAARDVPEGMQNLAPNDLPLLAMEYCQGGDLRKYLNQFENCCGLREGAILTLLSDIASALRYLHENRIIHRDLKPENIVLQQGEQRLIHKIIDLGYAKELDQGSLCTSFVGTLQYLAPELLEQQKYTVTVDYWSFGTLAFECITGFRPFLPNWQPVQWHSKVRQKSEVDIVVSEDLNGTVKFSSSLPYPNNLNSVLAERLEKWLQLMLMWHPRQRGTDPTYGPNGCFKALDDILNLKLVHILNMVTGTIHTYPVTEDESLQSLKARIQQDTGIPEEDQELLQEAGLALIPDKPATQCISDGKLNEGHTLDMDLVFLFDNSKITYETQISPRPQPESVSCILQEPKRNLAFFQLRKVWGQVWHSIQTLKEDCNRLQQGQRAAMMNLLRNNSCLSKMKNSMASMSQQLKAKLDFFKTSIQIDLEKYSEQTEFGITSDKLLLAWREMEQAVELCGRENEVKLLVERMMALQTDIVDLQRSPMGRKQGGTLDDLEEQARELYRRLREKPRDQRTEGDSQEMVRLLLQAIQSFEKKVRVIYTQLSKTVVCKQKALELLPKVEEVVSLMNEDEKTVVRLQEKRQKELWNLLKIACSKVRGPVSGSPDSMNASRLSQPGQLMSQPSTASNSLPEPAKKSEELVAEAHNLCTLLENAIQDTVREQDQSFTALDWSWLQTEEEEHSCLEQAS
# JNK3 = target: T6, JNK3 (Homo sapiens, UniProt P53779); assay: KINOMEscan scanEDGE; assay type: binding; conditions: 20 uM
# T6 construct: purchased Eurofins DiscoverX (KINOMEscan; SAFETYscan E/IC50 ELECT)
# T6 sequence (P53779 whole entry): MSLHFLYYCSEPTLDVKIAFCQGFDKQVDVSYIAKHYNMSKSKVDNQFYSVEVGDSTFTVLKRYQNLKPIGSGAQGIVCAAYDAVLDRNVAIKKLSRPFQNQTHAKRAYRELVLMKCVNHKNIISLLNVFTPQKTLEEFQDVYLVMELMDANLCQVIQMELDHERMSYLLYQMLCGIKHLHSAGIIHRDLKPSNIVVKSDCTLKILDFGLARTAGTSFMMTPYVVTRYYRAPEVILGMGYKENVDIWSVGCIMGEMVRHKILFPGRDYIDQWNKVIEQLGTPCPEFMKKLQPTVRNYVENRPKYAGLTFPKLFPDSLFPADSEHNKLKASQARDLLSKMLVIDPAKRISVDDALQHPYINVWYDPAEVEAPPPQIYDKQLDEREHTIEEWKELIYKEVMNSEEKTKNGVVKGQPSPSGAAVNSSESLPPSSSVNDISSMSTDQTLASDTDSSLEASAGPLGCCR
# YANK3 = target: T7, YANK3 (Homo sapiens, UniProt Q86UX6); assay: KINOMEscan scanEDGE; assay type: binding; conditions: 20 uM
# T7 construct: purchased Eurofins DiscoverX (KINOMEscan; SAFETYscan E/IC50 ELECT)
# T7 sequence (Q86UX6 whole entry): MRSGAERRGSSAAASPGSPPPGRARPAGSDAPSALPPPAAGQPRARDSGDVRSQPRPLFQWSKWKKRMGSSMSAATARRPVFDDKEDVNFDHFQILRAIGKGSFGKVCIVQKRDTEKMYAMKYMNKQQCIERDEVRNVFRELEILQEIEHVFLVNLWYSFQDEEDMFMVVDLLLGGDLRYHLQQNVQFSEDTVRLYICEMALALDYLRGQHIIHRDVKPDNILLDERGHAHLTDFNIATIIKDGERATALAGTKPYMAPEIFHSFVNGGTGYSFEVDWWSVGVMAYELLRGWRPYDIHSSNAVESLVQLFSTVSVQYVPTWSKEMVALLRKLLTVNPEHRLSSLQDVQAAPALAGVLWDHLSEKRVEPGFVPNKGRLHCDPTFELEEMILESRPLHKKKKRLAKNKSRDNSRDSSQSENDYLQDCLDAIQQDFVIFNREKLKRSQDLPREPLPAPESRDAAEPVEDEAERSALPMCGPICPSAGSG
# T1 sequence (O15530 whole entry): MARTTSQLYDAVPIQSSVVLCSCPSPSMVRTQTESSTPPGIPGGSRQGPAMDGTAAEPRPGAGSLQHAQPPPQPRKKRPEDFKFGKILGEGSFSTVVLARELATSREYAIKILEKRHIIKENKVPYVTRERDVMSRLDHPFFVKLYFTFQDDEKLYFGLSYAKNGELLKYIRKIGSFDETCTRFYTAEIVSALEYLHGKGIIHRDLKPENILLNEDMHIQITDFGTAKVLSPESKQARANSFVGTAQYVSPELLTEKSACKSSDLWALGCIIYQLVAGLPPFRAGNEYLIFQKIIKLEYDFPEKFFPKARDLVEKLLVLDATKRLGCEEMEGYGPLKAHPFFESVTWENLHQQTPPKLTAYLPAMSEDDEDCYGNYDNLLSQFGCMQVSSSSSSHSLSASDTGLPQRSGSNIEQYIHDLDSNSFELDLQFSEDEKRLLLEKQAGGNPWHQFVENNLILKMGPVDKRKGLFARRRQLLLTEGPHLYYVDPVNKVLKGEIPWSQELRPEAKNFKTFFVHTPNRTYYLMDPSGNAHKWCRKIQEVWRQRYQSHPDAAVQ
smiles,measurement,setting,value
O=c1ccc(-c2cnc(OCC(F)(F)F)nc2)nn1Cc1cncc(F)c1 [EDG-5506],"binding, % of control",PDPK1,95 % of control
same,"binding, % of control",RET,52 % of control
same,plasma CK activity after in situ injury,mdx mice; 1 hour after in situ injury,lowered plasma CK activity
same,postexercise plasma CK,mdx mice; 1 hour after rotarod or grip strength tests,significantly lower
same,"binding, % of control",ACVR1B,91 % of control
same,"binding, % of control",CDK9,96 % of control
same,reduction of specific tension before injury,mdx lumbrical muscle; 0.3 μM,15%
same,strength drop with contraction,mdx lumbrical muscle; mdx lumbrical,completely prevented
same,clot formation (hypercontraction),"mdx lumbrical muscle; mdx lumbrical, after 12 contractions",completely prevented clot formation
same,concentration of maximal efficacy,"mdx lumbrical muscle; mdx lumbrical, repeated tetanic contraction",0.3 µM
same,"binding, % of control",IKK-beta,94 % of control
same,"binding, % of control",JNK3,81 % of control
same,"binding, % of control",YANK3,88 % of control
